According to patent EP0067666A1, “Salts of antimicrobial naphthyridine and quinoline compounds and their production” (priority 1981, dated 1982):
In brackets after ≈: the same amount, converted by molar mass. Like-named read-outs stand apart in the source and are kept apart here.

Legend:
[1] = Lyophilization of the salts; format: physicochemical
Description: The unpredictable characteristics of the salts prepared from Compounds A and B are clear from consideration of the results reported in Table 1. These characteristics were considered in view of the necessary requirements (a-f) outlined above for preparing a useful parenteral dosage form. […] From the data in Table 1, the lactate salts appear to be useful; however, lactic acid cannot be consistently obtained in a satisfactory grade in presently available commercial forms and is therefore not useful. The choline and sodium salts were ruled out based on the pH of their respective solutions.

Entero cloacae MA 2646 = experiment: Antibacterial activity, MIC; format: cell-based
E. coli Vogel = experiment: Antibacterial activity, MIC; format: cell-based
Klebs. pneumoniae MGH-2 = experiment: Antibacterial activity, MIC; format: cell-based
Proteus retgeri M 1771 = experiment: Antibacterial activity, MIC; format: cell-based
Pseudo. aeruginosa UI-18 = experiment: Antibacterial activity, MIC; format: cell-based
Staph. aureus H 228 = experiment: Antibacterial activity, MIC; format: cell-based
Staph. aureus UC-76 = experiment: Antibacterial activity, MIC; format: cell-based
Strep. faecalis MGH-2 = experiment: Antibacterial activity, MIC; format: cell-based
Strep. pneumoniae SV-1 = experiment: Antibacterial activity, MIC; format: cell-based
Strep. pyogenes C-203 = experiment: Antibacterial activity, MIC; format: cell-based
[2] = system: Klebsiella pneumoniae MGH-2; experiment: Acute mouse protection test; format: in vivo; details: subcutaneous, single dose given at time of challenge, compound B series
Escherichia coli Vogel = experiment: Acute mouse protection test; format: in vivo; details: single dose given at time of challenge, compound B series; for ED50: Escherichia coli
[3] = system: Staphylococcus aureus UC-76; experiment: Acute mouse protection test; format: in vivo; details: single dose given at time of challenge, compound B series; for Single sc Dose PD50 (mg/kg) ± 95% Confidence Limits Staphylococcus aureus UC-76: subcutaneous
[4] = Two-way crossover oral trial, drug blood levels by disk agar diffusion microbiological assay; format: in vivo; details: Beagle dogs, single 25 mg/kg (parent compound equivalent) oral dose in hard gelatine capsules; compound B compared with compound D as the glutamate
Description: Drug blood levels were determined by a disk agar diffusion microbiological assay.

SMILES	MIC µg/ml Entero cloacae MA 2646 (Entero cloacae MA 2646; based on content of compound B) [µg/mL]	MIC µg/ml E. coli Vogel (E. coli Vogel; based on content of compound B) [µg/mL]	MIC µg/ml Klebs. pneumoniae MGH-2 (Klebs. pneumoniae MGH-2; based on content of compound B) [µg/mL]	MIC µg/ml Proteus retgeri M 1771 (Proteus retgeri M 1771; based on content of compound B) [µg/mL]	MIC µg/ml Pseudo. aeruginosa UI-18 (Pseudo. aeruginosa UI-18; based on content of compound B) [µg/mL]	MIC µg/ml Staph. aureus H 228 (Staph. aureus H 228; based on content of compound B) [µg/mL]	MIC µg/ml Staph. aureus UC-76 (Staph. aureus UC-76; based on content of compound B) [µg/mL]	MIC µg/ml Strep. faecalis MGH-2 (Strep. faecalis MGH-2; based on content of compound B) [µg/mL]	MIC µg/ml Strep. pneumoniae SV-1 (Strep. pneumoniae SV-1; based on content of compound B) [µg/mL]	MIC µg/ml Strep. pyogenes C-203 (Strep. pyogenes C-203; based on content of compound B) [µg/mL]	Single sc Dose PD50 (mg/kg) ± 95% Confidence Limits Klebsiella pneumoniae MGH-2 [2] [mg/kg]	Single po Dose PD50 (mg/kg) ± 95% Confidence Limits Escherichia coli Vogel (Escherichia coli Vogel) [mg/kg]	Single sc Dose PD50 (mg/kg) ± 95% Confidence Limits Escherichia coli Vogel (Escherichia coli Vogel; subcutaneous) [mg/kg]	Single sc Dose PD50 (mg/kg) ± 95% Confidence Limits Staphylococcus aureus UC-76 [3] [mg/kg]	other results
CCn1cc(C(=O)O)c(=O)c2cc(F)c(N3CCNCC3)nc21 [B acetate]															lyophilization [1]: cannot be successfully lyophilized
CCn1cc(C(=O)O)c(=O)c2cc(F)c(N3CCNCC3)cc21 [A Glutamate]															MIC µg/ml Entero cloacae MA 2646 (Entero cloacae MA 2646; based on content of compound A): <0.1 µg/mL; MIC µg/ml E. coli Vogel (E. coli Vogel; based on content of compound A): <0.1 µg/mL; MIC µg/ml Klebs. pneumoniae MGH-2 (Klebs. pneumoniae MGH-2; based on content of compound A): 0.1 µg/mL (≈ 0.313 µM); MIC µg/ml Proteus retgeri M 1771 (Proteus retgeri M 1771; based on content of compound A): 0.1 µg/mL (≈ 0.313 µM); MIC µg/ml Pseudo. aeruginosa UI-18 (Pseudo. aeruginosa UI-18; based on content of compound A): 0.1 µg/mL (≈ 0.313 µM); MIC µg/ml Staph. aureus H 228 (Staph. aureus H 228; based on content of compound A): 1.6 µg/mL (≈ 5.01 µM); MIC µg/ml Staph. aureus UC-76 (Staph. aureus UC-76; based on content of compound A): <0.1 µg/mL; MIC µg/ml Strep. faecalis MGH-2 (Strep. faecalis MGH-2; based on content of compound A): 1.6 µg/mL (≈ 5.01 µM); MIC µg/ml Strep. pneumoniae SV-1 (Strep. pneumoniae SV-1; based on content of compound A): 1.6 µg/mL (≈ 5.01 µM); MIC µg/ml Strep. pyogenes C-203 (Strep. pyogenes C-203; based on content of compound A): 0.8 µg/mL (≈ 2.51 µM)
CCn1cc(C(=O)O)c(=O)c2cc(F)c(N3CCNCC3)nc21 [B Gluconate]	0.4	0.1	0.2	0.2	0.8	1.6	0.4	3.1	3.1	3.1	5.2 ± 1.5	2.9 ± 0.7	1.1 ± 0.4		
CCn1cc(C(=O)O)c(=O)c2cc(F)c(N3CCNCC3)nc21 [B Aspartate]	0.2 (≈ 0.624 µM)	<0.1	0.1 (≈ 0.312 µM)	<0.1	0.4 (≈ 1.25 µM)	3.1 (≈ 9.68 µM)	0.1 (≈ 0.312 µM)	3.1 (≈ 9.68 µM)	3.1 (≈ 9.68 µM)	6.3 (≈ 19.7 µM)	1.6 ± 0.6	2.9 ± 1.0	1.3 ± 0.4	4.3 ± 1.4	Single po Dose PD50 (mg/kg) ± 95% Confidence Limits Staphylococcus aureus UC-76 ([3]; oral): 13 ± 3.0 mg/kg
CCn1cc(C(=O)O)c(=O)c2cc(F)c(N3CCNCC3)nc21 [Compound B, 1-ethyl-6-fluoro-1,4-dihydro-4-oxo-7-(1-piperazinyl)-1,8-naphthyridine-3-carboxylic acid, reference compound]					0.8 (≈ 2.5 µM)		0.2 (≈ 0.624 µM)			3.1 (≈ 9.68 µM)	2.6 ± 0.6			7.4 ± 2.2	MIC (Entero cloacae MA 2646; based on content of compound B): 0.2 µg/mL (≈ 0.624 µM); MIC (E. coli Vogel; Escherichia coli, based on content of compound B): 0.2 µg/mL (≈ 0.624 µM); MIC (Klebs. pneumoniae MGH-2; Klebsiella pneumoniae, MGH2, based on content of compound B): 0.1 µg/mL (≈ 0.312 µM); MIC (Proteus retgeri M 1771; based on content of compound B): 0.1 µg/mL (≈ 0.312 µM); MIC (Staph. aureus H 228; Staphylococcus aureus, H228, based on content of compound B): 3.1 µg/mL (≈ 9.68 µM); MIC (Strep. faecalis MGH-2; Enterococcus faecalis, MGH2, based on content of compound B): 1.6 µg/mL (≈ 4.99 µM); MIC (Strep. pneumoniae SV-1; Streptococcus pneumoniae, SV1, based on content of compound B): 3.1 µg/mL (≈ 9.68 µM); ED50 (Escherichia coli Vogel; po, read-out: Single po Dose PD50 (mg/kg) ± 95% Confidence Limits Escherichia coli Vogel): 3.1 ± 0.7 mg/kg; ED50 (Escherichia coli Vogel; sc, subcutaneous, read-out: Single sc Dose PD50 (mg/kg) ± 95% Confidence Limits Escherichia coli Vogel): 1.4 ± 0.4 mg/kg; ED50 ([3]; Staphylococcus aureus, UC76, po, oral, read-out: Single po Dose PD50 (mg/kg) ± 95% Confidence Limits Staphylococcus aureus UC-76): 14 ± 7 mg/kg; drug half-life [4]: no significant difference; peak blood level [4]: no significant difference
